# Reference: PMC8708382, “Heterocyclic Cathinones as Inhibitors of Kynurenine Aminotransferase II—Design, Synthesis, and Evaluation” (Pharmaceuticals, 2021)
# Where two headings read alike, the source gives them in different places.
# Columns and labels:
# KAT-II = conditions: published KAT-II inhibitors, Figure 2; cited from earlier work
# hKAT-II = target: T1, hKAT-II (Homo sapiens, UniProt Q8N5Z0); experiment: Coupled fluorescence in vitro inhibition assay of hKAT-II; type: biochemical; conditions: for Inhibitory Activity [%I ± SEM] c = 1 µM: 30 min pre-incubation with enzyme, mean ± SEM
# T1 construct: hexahistidine tag (N); made in house; host or cells: E. coli BL21(DE3)-RIL
# T1 sequence (Q8N5Z0 30-425): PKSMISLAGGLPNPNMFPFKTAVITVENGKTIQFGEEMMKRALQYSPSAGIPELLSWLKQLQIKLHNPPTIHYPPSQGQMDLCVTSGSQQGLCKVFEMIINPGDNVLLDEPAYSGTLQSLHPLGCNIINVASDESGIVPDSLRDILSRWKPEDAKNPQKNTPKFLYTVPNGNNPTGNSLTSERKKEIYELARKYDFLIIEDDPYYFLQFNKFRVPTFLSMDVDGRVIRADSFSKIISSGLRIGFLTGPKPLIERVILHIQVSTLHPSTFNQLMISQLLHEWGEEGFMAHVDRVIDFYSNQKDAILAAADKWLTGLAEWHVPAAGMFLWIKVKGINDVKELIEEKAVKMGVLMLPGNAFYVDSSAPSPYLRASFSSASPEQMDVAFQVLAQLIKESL
# Method: The inhibitory activity of amino ketones 11 and 12 was evaluated using a fluorimetric in vitro assay. The activity was determined as the percentage of inhibition (%I) at a concentration of 1 µmol/L and also as IC50 values (Table 1). The observed inhibitory activity confirmed the validity of the computational model and was suitable to conduct a synthesis-directed SAR study around the predicted heterocyclic α-amino ketone structure.
# The nucleotide sequence encoding hKAT-II gene was constructed by Invitrogen, Thermo Fisher Scientific. The hKAT-II gene, optimized for heterologous expression in E. coli, was cloned into a pET15b vector using NdeI-XhoI. The hKAT-II protein, carrying an N-terminal hexahistidine tag, was produced in E.coli BL21(DE3)-RIL cells for 4 h at 37 °C. The bacterial cells were then harvested and disintegrated using One-Shot. […] (25.000× g, 30 min) centrifugation cleared cell lysate containing hKAT-II was loaded on the top of a HisTrap Fast Flow column (Cytiva) equilibrated in loading buffer (40 mM Tris, pH 8; 1000 mM NaCl, 40 µM PLP, 5 mM MgCl2, 20 mM imidazole). Following elution of the bound proteins by the loading buffer containing 600 mM imidazole, purified hKAT-II was dialyzed into a storage buffer (20 mM Hepes pH 7.5; 50 mM NaCl, 70 µM PLP, 10% glycerol), concentrated to 1.0–1.5 mg/mL, aliquoted, and stored at −80 °C.
# hKAT-II activity was measured using a fluorescence assay utilizing L-α-aminoadipic acid (AAD) and α-ketoglutarate as the substrates as previously described. The assay medium (100 µL) consisted of 0.75 µM of hKAT-II, 0.3 mM of AAD, 50 µM α-ketoglutarate, 3 mM NAD^+, 88 µg/mL of glutamic dehydrogenase, and 5 µM pyridoxal phosphate (PLP) in a 0.1 M phosphate buffer pH 7.5. The activity of the enzyme was assessed on a Spark multiple mode reader (Tecan Group Ltd., Männedorf, Switzerland) with an excitation wavelength of 340 nm and emission wavelength of 390 nm at 37 °C. The plate was shaken for 20 s before reading. The kinetic interval was set at 30 s between each reading, and data were collected for 30 min. The activity of the enzyme was assayed in pentaplicate in each measurement (n = 3). Kinetic data were then collected over a period of 30 min, and the linear part of the initial velocity was used to calculate the enzyme activity expressed as the slope of the linearized curve via the linear regression function (Excel, Microsoft, USA).
# The inhibitory activity of the tested compounds was determined via 30 min pre-incubation with the enzyme at various concentrations of the inhibitor at room temperature in a 0.1 M phosphate buffer pH 7.5 with 5 µM PLP. The enzyme reaction was initiated by the addition of a substrate and cofactors. The final mixture contained 20 nM of hKAT-II, 0.3 mM of AAD, 50 µM α-ketoglutarate, 3 mM NAD^+, and 88 µg/mL of glutamic dehydrogenase. Kinetic data were collected over a period of 30 min, and the slope of the linearized curve was calculated as above. The inhibitory activity in %I at a given concentration was calculated for novel compounds using the following equation:(1) Inhibition [%I]=(V0− Vi/V0)×100, where V0 and Vi are the activity of the enzyme in the absence and presence of the inhibitor, respectively. All the data were obtained in pentaplicate for each measurement (n = 3). Alternatively, the IC50 values for selected novel compounds were assessed. GraphPad Prism 8 software (San Diego, USA) was used for the IC50 value calculation using non-linear regression (four parameters). […]
structure (smiles),measurement,setting,value
"CCS(=O)(=O)c1ccc(C(=O)C[C@H](N)C(=O)O)cc1 [Compound 1, (S)-ESBA]",IC50,KAT-II,71000 nM
"C[C@H]1COc2c(N3CCN(N)CC3)c(F)cc3c(=O)c(C(=O)O)cn1c23 [Compound 2, BFF-122]",IC50,KAT-II,1000 nM
N[C@H]1Cc2cn(-c3ccccc3)nc2N(O)C1=O [Compound 4],IC50,KAT-II,25 nM
"O=C1NC(=O)/C(=C/c2cccc(-c3ccc4c5c3CCC(=O)N5CC4)c2)S1 [Compound 5, BFF-816]",IC50,KAT-II,13400 nM
"CC1(C)[C@@H](O)CC[C@]2(C)[C@H]3C(=O)C=C4[C@@H]5C[C@@](C)(C(=O)O)CC[C@]5(C)CC[C@@]4(C)[C@]3(C)CC[C@@H]12 [Compound 6, glycyrrhetinic acid]",IC50,KAT-II,7000 nM
NS(=O)(=O)c1ccc(N2C(=O)c3cc(Cl)c(Cl)cc3C2=O)cc1 [Compound 7],IC50,KAT-II,73800 nM
Cn1c(CN2CCOCC2)nc2sc([C@H]3CCCN3C(=O)OCc3ccccc3)nc2c1=O [Compound 8],IC50,KAT-II,610 nM
CC(C)[C@@H](Cc1nnc(NS(=O)(=O)c2cc(F)cc(F)c2)s1)c1cccc(F)c1 [Compound 9],IC50,KAT-II,880 nM
Cc1ccc(NC(=O)N2CCCC3(CCC(=O)N(CCC(C)C)C3)C2)cc1Cl (stereo not drawn) [Compound 10],IC50,KAT-II,810 nM
CC[C@H](N)C(=O)c1cn(-c2ccc(F)cc2)nn1.Cl [Compound 32c],Inhibitory Activity [%I ± SEM] c = 1 µM,hKAT-II; 20 nM hKAT-II,35.94 ± 2.87 %I
same,melting point,,> 182 °C (dec.)
C[C@H](N)C(=O)c1nc2ccccc2s1.Cl [Compound 34a],Inhibitory Activity [%I ± SEM] c = 1 µM,hKAT-II; 20 nM hKAT-II,52.49 ± 1.31 %I
same,melting point,,> 156 °C (dec.)
C[C@H](N)C(=O)c1nc2ccc(F)cc2s1 [Compound 34b],IC50,hKAT-II,987 ± 88 nM
same,Inhibitory Activity [%I ± SEM] c = 1 µM,hKAT-II; 20 nM hKAT-II,56.60 ± 3.68 %I
same,melting point,,> 152 °C (dec.)
CC[C@H](N)C(=O)c1nc2ccccc2s1.Cl [Compound 34c],Inhibitory Activity [%I ± SEM] c = 1 µM,hKAT-II; 20 nM hKAT-II,36.16 ± 3.81 %I
same,melting point,,> 140 °C (dec.)
CC[C@H](N)C(=O)c1nc2ccc(F)cc2s1.Cl [Compound 34d],Inhibitory Activity [%I ± SEM] c = 1 µM,hKAT-II; 20 nM hKAT-II,9.73 ± 1.41 %I
same,melting point,,> 145 °C (dec.)
CC[C@H](N)C(=O)c1ncc(-c2ccc(F)cc2)s1 [Compound 49b],Inhibitory Activity [%I ± SEM] c = 1 µM,hKAT-II; 20 nM hKAT-II,57.07 ± 0.31 %I
same,melting point,,> 150 °C (dec.)
C[C@H](N)C(=O)c1ncc(-c2ccc(F)cc2Cl)s1.Cl [Compound 49c],Inhibitory Activity [%I ± SEM] c = 1 µM,hKAT-II; 20 nM hKAT-II,47.65 ± 1.71 %I
same,melting point,,127 to 134 °C (dec.)
CC[C@H](N)C(=O)c1ncc(-c2ccc(F)cc2Cl)s1.Cl [Compound 49d],IC50,"hKAT-II; 30 min pre-incubation, 20 nM hKAT-II, non-linear regression (four parameters), read-out: IC50 ± SEM",304 ± 39 nM
same,Inhibitory Activity [%I ± SEM] c = 1 µM,hKAT-II; 20 nM hKAT-II,59.71 ± 0.97 %I
same,melting point,,> 134 °C (dec.)
